Results: patent publication US20250339415A1, “DISULFIDE COMPOUNDS AS MEDICAMENTS” (CYTACOAT AB, priority 2021, published 2025)
Converted amounts (≈) assume the structure as drawn. Where two headings read alike, the source gives them in different places.

Tests used:
Format in all cases: cell-based
Candida albicans = experiment: Minimum inhibitory concentration (MIC), visible growth, YPD broth; details: for MIC: Candida albicans
Method: (§1) • 1. Using a sterile inoculating loop, transfer bacteria/Candida albicans from frozen stock culture and streak them on a fresh LA plate. • 2. Incubate the plate at 37° C. overnight (o/n) (18-24 h).
(§2) • 1. Prepare bacterial culture by adding 20 ml Mueller Hinton broth (*) to a 250-ml Erlenmeyer flask with sidearm. • 2. Using a sterile inoculating loop, pick approximately 10 colonies from the o/n bacterial culture and transfer bacteria to the flask. • 3. Incubate the E-flask with bacteria on a rotating shaker at 37° C. until OD590=0.40. This OD should equal an approximate bacterial count of 1×10^8 cfu/ml (**) • This is measured using a colorimeter (or spectrophotometer). Set reference and press R (=reference) first, then measure the bacterial culture by pressing T (=test). • 4. At OD590 0.40, serially dilute the bacterial suspension 1:10 000 in Mueller Hinton broth to obtain a bacterial target concentration of 1×10^4 cfu/ml. Determine the initial inoculation by serially diluting 0.1 ml in 0.9 ml blanks of sterile PBS and plating 0.1 ml aliquots to LA plates, preferably. • 5. Different concentrations of the tested compound are prepared in 0.6-0.8 ml of the final dilution of bacterial suspension and placed in 2-ml test tubes. • 6. Incubate test tubes in an orbital shaker incubator at 37° C. for 24 h.
(§3) • 7. Analyze visible growth, i.e. “Foggy” or “Clear”. MIC is being defined as the interval between the highest “Foggy” and the lowest “Clear” concentration of the compound.
(*) When testing Candida albicans, Yeast extract Peptone Dextrose (YPD) broth is being used.
(**) For Candida albicans it is equal to 1×10^7
Different concentrations of PDEA were also prepared in Yeast extract Peptone Dextrose (YPD) broth. Candida albicans were inoculated to a concentration of 20 000 CFU/ml and incubated at 37° C. for 24 hours. Readouts were “Clear” and “Foggy”.
Different concentrations of the quaternary ammonium PDEA (Example 2) were also prepared in Yeast extract Peptone Dextrose (YPD) broth. Candida albicans were inoculated to a concentration of 20 000 CFU/ml and incubated at 37° C. for 24 hours. Readouts were “Clear” and “Foggy”.
Different concentrations of the Para position-PDEA” is (S)-4-pyridylthio cysteamine were also prepared in Yeast extract Peptone Dextrose (YPD) broth. Candida albicans were inoculated to a concentration of 20 000 CFU/ml and incubated at 37° C. for 24 hours. Readouts were “Clear” and “Foggy”.
Different concentrations of “Carboxylic acid PDEA” is 3-(2-Pyridyldithio)propanoic acid (CAS: 68617-64-1) were also prepared in Yeast extract Peptone Dextrose (YPD) broth. Candida albicans were inoculated to a concentration of 20 000 CFU/ml and incubated at 37° C. for 24 hours. Readouts were “Clear” and “Foggy”.

[1] = system: Staphylococcus epidermidis Se19 (Clinical Isolate, Jan Ingemar Falk); experiment: Minimum inhibitory concentration (MIC), visible growth; details: for MIC: Staphylococcus epidermidis
Method: as §1, §2, §3
(§4) Different concentrations of PDEA (Example 1) in Mueller Hinton medium were prepared. Bacteria were inoculated to a concentration of 20 000 CFU/ml and incubated at 37° C. for 24 hours. Minimum inhibitory concentrations (MICs) were determined by analyzing visible growth, i.e., readouts were “Clear” and “Foggy”.
(§5) Different concentrations of the quaternary ammonium PDEA (Example 2) in Mueller Hinton medium were prepared. Bacteria were inoculated to a concentration of 20 000 CFU/ml and incubated at 37° C. for 24 hours. Minimum inhibitory concentrations (MICs) were determined by analyzing visible growth, i.e., readouts were “Clear” and “Foggy”.
(§6) Different concentrations of this compound in Mueller Hinton medium were prepared. Bacteria were inoculated to a concentration of 20 000 CFU/ml and incubated at 37° C. for 24 hours. Minimum inhibitory concentrations (MICs) were determined by analyzing visible growth, i.e., readouts were “Clear” and “Foggy”.
(§7) Different concentrations of this compound were prepared in Mueller Hinton broth. Bacteria were inoculated to a concentration of 20 000 CFU/ml and incubated at 37° C. for 24 hours. Minimum inhibitory concentrations (MICs) were determined by analyzing visible growth, i.e., readouts were “Clear” and “Foggy”.

[2] = system: Klebsiella pneumoniae AO15200; experiment: as above; details: for MIC: Klebsiella pneumoniae
Method: as §1, §2, §3, §4, §5, §6, §7

[3] = system: Pseudomonas aeruginosa PA02; experiment: as above; details: for MIC: Pseudomonas aeruginosa
Method: as §1, §2, §3, §4, §5, §6, §7

Escherichia coli CFT073 = experiment: as above; details: for MIC: Escherichia coli
Method: as §1, §2, §3, §4, §5, §6, §7

[4] = system: Enterococcus faecalis #28 (KI, Clinical Isolate); experiment: as above; details: for MIC: Enterococcus faecalis
Method: as §1, §2, §3, §4, §5, §6, §7

[5] = system: Staphylococcus aureus B5381; experiment: as above
Method: as §1, §2, §3, §4, §5, §6, §7

[6] = system: Enterococcus faecium #11 (KI, Clinical Isolate); experiment: as above; details: for MIC: Enterococcus faecium
Method: as §1, §2, §3, §4, §5, §6, §7

[7] = Mueller Hinton, 20 000 CFU/ml, 37° C., 24 hours, read-out: MIC

Structure (SMILES): O=C(O)CCSSc1ccccn1 [Example 4, 3-(2-Pyridyldithio)propanoic acid]
- visible growth readout (Candida albicans; 0.05 mM): Foggy
- visible growth readout (Candida albicans; 0.1 mM): Foggy
- visible growth readout (Candida albicans; 0.25 mM): Foggy
- visible growth readout (Candida albicans; 0.5 mM): Foggy
- visible growth readout (Candida albicans; 1 mM): Foggy
- visible growth readout (Candida albicans; 2 mM): Clear
- visible growth readout (Candida albicans; 4 mM): Clear
- MIC (Candida albicans; YPD broth, 20 000 CFU/ml, 37° C., 24 hours, read-out: MIC): 1000 to 2000 µM (≈ 215 to 431 µg/mL)
- visible growth readout ([1]; 0.05 mM): Foggy
- visible growth readout ([1]; 0.1 mM): Foggy
- visible growth readout ([1]; 0.25 mM): Clear
- visible growth readout ([1]; 0.5 mM): Clear
- visible growth readout ([1]; 1 mM): Clear
- visible growth readout ([1]; 2 mM): Clear
- visible growth readout ([1]; 4 mM): Clear
- MIC [1, 7]: 100 to 250 µM (≈ 21.5 to 53.8 µg/mL)
- visible growth readout ([2]; 0.05 mM): Foggy
- visible growth readout ([2]; 0.1 mM): Foggy
- visible growth readout ([2]; 0.25 mM): Foggy
- visible growth readout ([2]; 0.5 mM): Foggy
- visible growth readout ([2]; 0.8 mM (second series)): Foggy
- visible growth readout ([2]; 1 mM): Foggy
- visible growth readout ([2]; 2 mM): Foggy
- visible growth readout ([2]; 3.2 mM (second series)): Foggy
- visible growth readout ([2]; 4 mM): Foggy
- visible growth readout ([2]; 6.4 mM (second series)): Clear
- visible growth readout ([2]; 12.8 mM (second series)): Clear
- visible growth readout ([2]; 0.1.6 mM (second series)): Foggy
- MIC ([2]; AO15200, Mueller Hinton, 20 000 CFU/ml, 37° C., 24 hours, read-out: MIC): 3200 to 6400 µM (≈ 689 to 1380 µg/mL)
- visible growth readout ([3]; 0.05 mM): Foggy
- visible growth readout ([3]; 0.1 mM): Foggy
- visible growth readout ([3]; 0.25 mM): Foggy
- visible growth readout ([3]; 0.5 mM): Foggy
- visible growth readout ([3]; 0.8 mM (second series)): Foggy
- visible growth readout ([3]; 1 mM): Foggy
- visible growth readout ([3]; 2 mM): Foggy
- visible growth readout ([3]; 3.2 mM (second series)): Foggy
- visible growth readout ([3]; 4 mM): Foggy
- visible growth readout ([3]; 6.4 mM (second series)): Foggy
- visible growth readout ([3]; 12.8 mM (second series)): Clear
- visible growth readout ([3]; 0.1.6 mM (second series)): Foggy
- MIC ([3]; PA02, Mueller Hinton, 20 000 CFU/ml, 37° C., 24 hours, read-out: MIC): 6400 to 12800 µM (≈ 1380 to 2760 µg/mL)
- visible growth readout (Escherichia coli CFT073; 0.05 mM): Foggy
- visible growth readout (Escherichia coli CFT073; 0.1 mM): Foggy
- visible growth readout (Escherichia coli CFT073; 0.25 mM): Foggy
- visible growth readout (Escherichia coli CFT073; 0.5 mM): Foggy
- visible growth readout (Escherichia coli CFT073; 1 mM): Foggy
- visible growth readout (Escherichia coli CFT073; 2 mM): Foggy
- visible growth readout (Escherichia coli CFT073; 4 mM): Clear
- MIC (Escherichia coli CFT073; CFT073, Mueller Hinton, 20 000 CFU/ml, 37° C., 24 hours, read-out: MIC): 2000 to 4000 µM (≈ 431 to 861 µg/mL)
- visible growth readout ([4]; 0.05 mM): Foggy
- visible growth readout ([4]; 0.1 mM): Foggy
- visible growth readout ([4]; 0.25 mM): Foggy
- visible growth readout ([4]; 0.5 mM): Clear
- visible growth readout ([4]; 1 mM): Clear
- visible growth readout ([4]; 2 mM): Clear
- visible growth readout ([4]; 4 mM): Clear
- MIC [4, 7]: 250 to 500 µM (≈ 53.8 to 108 µg/mL)
- visible growth readout ([5]; 0.05 mM): Foggy
- visible growth readout ([5]; 0.1 mM): Foggy
- visible growth readout ([5]; 0.25 mM): Foggy
- visible growth readout ([5]; 0.5 mM): Foggy
- visible growth readout ([5]; 1 mM): Clear
- visible growth readout ([5]; 2 mM): Clear
- visible growth readout ([5]; 4 mM): Clear
- visible growth readout ([6]; 0.05 mM): Foggy
- visible growth readout ([6]; 0.1 mM): Foggy
- visible growth readout ([6]; 0.25 mM): Clear
- visible growth readout ([6]; 0.5 mM): Clear
- visible growth readout ([6]; 1 mM): Clear
- visible growth readout ([6]; 2 mM): Clear
- visible growth readout ([6]; 4 mM): Clear
- MIC [6, 7]: 100 to 250 µM (≈ 21.5 to 53.8 µg/mL)

Structure (SMILES): C[N+](C)(C)CCSSc1ccccn1 [Example 2, 2-(2-Pyridyldisulanyl)ethan-(trimethylammonium) chloride]
- visible growth readout (Candida albicans; 0.11 mM): Foggy
- visible growth readout (Candida albicans; 0.225 mM): Foggy
- visible growth readout (Candida albicans; 0.55 mM): Clear
- visible growth readout (Candida albicans; 1.1 mM): Clear
- visible growth readout (Candida albicans; 2.2 mM): Clear
- visible growth readout (Candida albicans; 4.4 mM): Clear
- MIC (Candida albicans; 24 h): 225 to 550 µM
- visible growth readout ([1]; 0.025 mM): Foggy
- visible growth readout ([1]; 0.055 mM): Foggy
- visible growth readout ([1]; 0.11 mM): Clear
- visible growth readout ([1]; 0.225 mM): Clear
- MIC ([1]; 24 h): 55 to 110 µM
- visible growth readout ([2]; 0.11 mM): Foggy
- visible growth readout ([2]; 0.225 mM): Foggy
- visible growth readout ([2]; 0.55 mM): Clear
- visible growth readout ([2]; 1.125 mM): Clear
- MIC ([2]; AO15200, 24 h): 225 to 550 µM
- visible growth readout ([3]; 0.11 mM): Foggy
- visible growth readout ([3]; 0.225 mM): Foggy
- visible growth readout ([3]; 0.55 mM): Foggy
- visible growth readout ([3]; 1.125 mM): Clear
- MIC ([3]; PA02, 24 h): 550 to 1120 µM
- visible growth readout (Escherichia coli CFT073; 0.11 mM): Foggy
- visible growth readout (Escherichia coli CFT073; 0.225 mM): Foggy
- visible growth readout (Escherichia coli CFT073; 0.55 mM): Clear
- visible growth readout (Escherichia coli CFT073; 1.125 mM): Clear
- MIC (Escherichia coli CFT073; CFT073, 24 h): 225 to 550 µM
- visible growth readout ([4]; 0.11 mM): Foggy
- visible growth readout ([4]; 0.225 mM): Clear
- visible growth readout ([4]; 0.55 mM): Clear
- visible growth readout ([4]; 1.125 mM): Clear
- MIC ([4]; 24 h): 110 to 225 µM
- visible growth readout ([5]; 0.11 mM): Foggy
- visible growth readout ([5]; 0.225 mM): Foggy
- visible growth readout ([5]; 0.55 mM): Foggy
- visible growth readout ([5]; 1.125 mM): Clear
- MIC ([5]; Staphylococcus aureus, B5381, 24 h): 550 to 1120 µM
- visible growth readout ([6]; 0.025 mM): Foggy
- visible growth readout ([6]; 0.055 mM): Foggy
- visible growth readout ([6]; 0.11 mM): Clear
- visible growth readout ([6]; 0.225 mM): Clear
- MIC ([6]; 24 h): 55 to 110 µM
